pIC50: −log10 of the molar value. Starred links: 1 amine or outer side, 2 acyl side, 3 side chain; linkers in the order of their positions; H or OH if unused. Positions of bridges follow the written chain, without caps; N, C: chain ends. Non-standard residues stand in square brackets, D forms with d. Residues, ends and D or L forms follow the SMILES beside them. ξ: configuration not given here. *: point of attachment. Phe(Nα-CONH2) = NC(=O)N[C@@H](Cc1ccccc1)C(=O)*; dβ3hPhg = O=C(C[C@H](N[*:1])c1ccccc1)[*:2]; Decanoyl(3,6,9-trioxa) = COCCOCCOCC(=O)*; NMe2Phe = CN(C)[C@@H](Cc1ccccc1)C(=O)*; Phe(4-F) = N[C@@H](Cc1ccc(F)cc1)C(=O)O; X11 = N=C(N)N[C@@H](Cc1ccccc1)C(=O)*; Acetyl(4-pyridyl) = O=C(Cc1ccncc1)*; Bta = N[C@@H](Cc1csc2ccccc12)C(=O)O; NEtPhe = CCN[C@@H](Cc1ccccc1)C(=O)O; Morpholinoacetyl = O=C(CN1CCOCC1)*; Hydrocinnamoyl = O=C(CCc1ccccc1)*; Hyp = O=C(O)[C@@H]1C[C@@H](O)CN1; d(hLeu) = CC(C)CC[C@@H](N)C(=O)O; ξNip = O=C(C1CCCN([*:1])C1)[*:2]; Cit = NC(=O)NCCC[C@H](N)C(=O)O; dCha = N[C@H](CC1CCCCC1)C(=O)O; Methoxyoxalyl = COC(=O)C(=O)*; NHCH2CH(OH)CH2OH = OCC(O)CN*; Nicotinoyl = O=C(c1cccnc1)*; Morpholide = C1CN(*)CCO1; Nle = CCCC[C@H](N)C(=O)O; Orn = NCCC[C@H](N)C(=O)O; Aze = O=C(O)[C@@H]1CCN1; Fluoroacetyl = O=C(CF)*; CO = O=C([*:1])[*:2]; βAla = NCCC(=O)O
target: T1, human C5aR(CD88) (Homo sapiens, UniProt P21730); test: Determination of the IC50 value in an enzyme release assay (functional assay, antagonistic activity); type: cell-based; conditions: activity (group), antagonistic activity; IC50 group in enzyme release assay, RBL cells expressing human C5aR(CD88)
T1 construct: expressed in transfected cells; host or cells: rat basophilic leukemia cells (RBL)
T1 sequence (P21730 1-350): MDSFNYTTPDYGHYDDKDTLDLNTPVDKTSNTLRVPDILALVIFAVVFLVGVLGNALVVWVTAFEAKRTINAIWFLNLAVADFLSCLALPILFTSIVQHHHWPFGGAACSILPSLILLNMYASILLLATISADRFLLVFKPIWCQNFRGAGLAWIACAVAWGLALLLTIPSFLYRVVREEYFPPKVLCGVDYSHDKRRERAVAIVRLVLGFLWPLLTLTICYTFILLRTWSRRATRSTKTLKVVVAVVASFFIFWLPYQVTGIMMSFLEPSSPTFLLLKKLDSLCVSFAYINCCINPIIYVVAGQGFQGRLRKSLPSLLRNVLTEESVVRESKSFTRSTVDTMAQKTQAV

`NCCC[C@H](NC(=O)[C@H](Cc1ccccc1)NC(=O)CF)C(=O)N1CC[C@H]1C(=O)N[C@H](CC1CCCCC1)C(=O)N[C@@H](Cc1csc2ccccc12)C(=O)N[C@@H](Cc1ccccc1)C(N)=O` [Compound 321, FAc-Phe-Orn-Aze-cha-Bta-Phe-NH2] (Fluoroacetyl-F[Orn][Aze][dCha][Bta]F-NH2) gave a pIC50 of 7.30 to 7.70.

same assay, conditions: antagonistic activity; IC50 group in enzyme release assay, RBL cells expressing human C5aR(CD88); read-out: activity (group)

`N[C@@H](CC(=O)N[C@@H](Cc1ccccc1)C(=O)N[C@H]1CCCNC(=O)[C@H](Cc2ccccc2)NC(=O)[C@H](Cc2c[nH]c3ccccc23)NC(=O)[C@@H](CC2CCCCC2)NC(=O)[C@@H]2C[C@@H](O)CN2C1=O)c1ccccc1` [Compound 318, Eby-Phe-[Orn-Hyp-cha-Trp-Phe]] (dβ3hPhg-F[Orn][Hyp][dCha]WF; lactam 2-C) and `NC(=O)N[C@@H](Cc1ccccc1)C(=O)N[C@H]1CCCNC(=O)[C@H](Cc2ccccc2)NC(=O)[C@H](Cc2c[nH]c3ccccc23)NC(=O)[C@@H](CC2CCCCC2)NC(=O)[C@@H]2C[C@@H](O)CN2C1=O` [Compound 323, Fai-Phe-[Orn-Hyp-cha-Trp-Phe]] ({Phe(Nα-CONH2)}-[Orn][Hyp][dCha]WF; lactam 1-C) fall in the same range of pIC50: 6.70 to 7.30 for the first, 6.70 to 7.30 for the second.

`CCCC[C@@H]1NC(=O)[C@H](Cc2ccc(F)cc2)NC(=O)[C@@H](CCC(C)C)NC(=O)[C@@H]2CCCN2C(=O)[C@@H](NC(=O)[C@H](Cc2ccccc2)NCC)CCCNC1=O` [Compound 319, Eth-Phe-[Orn-Pro-hle-Pff-Nle]] (H-[NEtPhe][Orn]P[d(hLeu)][Phe(4-F)][Nle]; lactam 2-C) and `CCCC[C@@H]1NC(=O)[C@H](Cc2ccc(F)cc2)NC(=O)[C@@H](CCC(C)C)NC(=O)[C@@H]2CCCN2C(=O)[C@@H](NC(=O)[C@H](Cc2ccccc2)NC(=N)N)CCCNC1=O` [Compound 338, Fhu-Phe-[Orn-Pro-hle-Pff-Nle]] (X11-[Orn]P[d(hLeu)][Phe(4-F)][Nle]; lactam 1-C) fall in the same range of pIC50: 6.70 to 7.30 for the first, 6.70 to 7.30 for the second.

`NCCC[C@H](NC(=O)CCc1ccccc1)C(=O)N1CCC[C@H]1C(=O)N[C@H](CC1CCCCC1)C(=O)N[C@@H](Cc1csc2ccccc12)C(=O)N[C@@H](Cc1ccccc1)C(N)=O` [Compound 324, Faz-Orn-Pro-cha-Bta-Phe-NH2] (Hydrocinnamoyl-[Orn]P[dCha][Bta]F-NH2) and `NCCC[C@H](NC(=O)[C@H](Cc1ccccc1)NC(=O)CN)C(=O)N1CCC[C@H]1C(=O)N[C@H](CC1CCCCC1)C(=O)N[C@@H](Cc1csc2ccccc12)C(=O)N[C@@H](Cc1ccccc1)C(N)=O` [Compound 345, H-Gly-Phe-Orn-Pro-cha-Bta-Phe-NH2] (H-GF[Orn]P[dCha][Bta]F-NH2) fall in the same range of pIC50: 6.70 to 7.30 for the first, 6.70 to 7.30 for the second.

`CCCC[C@@H]1NC(=O)[C@H](Cc2c[nH]c3ccccc23)NC(=O)[C@@H](CC2CCCCC2)NC(=O)[C@@H]2CCCN2C(=O)[C@@H](NC(=O)[C@H](Cc2ccccc2)NC(=O)Cc2ccncc2)CCCNC1=O` [Compound 325, Fbi-Phe-[Orn-Pro-cha-Trp-Nle]] ({Acetyl(4-pyridyl)}-F[Orn]P[dCha]W[Nle]; lactam 2-C) and `CCCC[C@@H]1NC(=O)[C@H](Cc2c[nH]c3ccccc23)NC(=O)[C@@H](CC2CCCCC2)NC(=O)[C@@H]2CCCN2C(=O)[C@@H](NC(=O)[C@H](Cc2ccccc2)NC(=O)c2cccnc2)CCCNC1=O` [Compound 327, Fbn-Phe-[Orn-Pro-cha-Trp-Nle]] (Nicotinoyl-F[Orn]P[dCha]W[Nle]; lactam 2-C) fall in the same range of pIC50: 6.70 to 7.30 for the first, 6.70 to 7.30 for the second.

`O=C(N[C@@H](Cc1ccccc1)C(=O)N[C@H]1CCCNC(=O)[C@H](Cc2ccccc2)NC(=O)[C@H](Cc2c[nH]c3ccccc23)NC(=O)[C@@H](CC2CCCCC2)NC(=O)[C@@H]2C[C@@H](O)CN2C1=O)c1cccnc1` [Compound 326, Fbn-Phe-[Orn-Hyp-cha-Trp-Phe]] (Nicotinoyl-F[Orn][Hyp][dCha]WF; lactam 2-C) and `O=C(NCC(O)CO)N[C@@H](Cc1ccccc1)C(=O)N[C@H]1CCCNC(=O)[C@H](Cc2ccccc2)NC(=O)[C@H](Cc2c[nH]c3ccccc23)NC(=O)[C@@H](CC2CCCCC2)NC(=O)[C@@H]2C[C@@H](O)CN2C1=O` (stereo partly drawn) [Compound 336, Fhb-[Phe-Orn-Hyp-cha-Trp-Phe]] ({NHCH2CH(OH)CH2OH-CO}-F[Orn][Hyp][dCha]WF; lactam 2-C) fall in the same range of pIC50: 6.70 to 7.30 for the first, 6.70 to 7.30 for the second.

First: CCCC[C@@H]1NC(=O)[C@H](Cc2c[nH]c3ccccc23)NC(=O)[C@@H](CC2CCCCC2)NC(=O)[C@@H]2CCCN2C(=O)[C@@H](NC(=O)[C@H](Cc2ccccc2)NC(=O)c2cccnc2)CCCNC1=O [Compound 328, Fbn-Phe-[Orn-Pro-cha-Trp-Nle]] (Nicotinoyl-F[Orn]P[dCha]W[Nle]; lactam 2-C)
Second: CCCC[C@@H]1NC(=O)[C@H](Cc2c[nH]c3ccccc23)NC(=O)[C@@H](CC2CCCCC2)NC(=O)[C@@H]2CCCN2C(=O)[C@@H](NC(=O)[C@H](Cc2ccccc2)NC(=O)N2CCOCC2)CCCNC1=O [Compound 330, Fbo-Phe-[Orn-Pro-cha-Trp-Nle]] ({Morpholide-CO}-F[Orn]P[dCha]W[Nle]; lactam 2-C)
The pIC50 of the first is higher: 7.70 to 8.00 for the first, 6.70 to 7.30 for the second. The first is the more potent here.

`CC(C)CC[C@@H](NC(=O)[C@@H]1CCCN1C(=O)[C@H](CCCNC(N)=O)NC(=O)[C@H](Cc1ccccc1)NC(=O)c1cccnc1)C(=O)N[C@@H](Cc1csc2ccccc12)C(=O)N[C@@H](Cc1ccccc1)C(N)=O` [Compound 329, Fbn-Phe-Cit-Pro-hle-Bta-Phe-NH2] (Nicotinoyl-F[Cit]P[d(hLeu)][Bta]F-NH2) and `CC(C)CC[C@@H](NC(=O)[C@@H]1CCCN1C(=O)[C@H](CCCNC(N)=O)NC(=O)[C@H](Cc1ccccc1)NC(=O)C1CCCNC1)C(=O)N[C@@H](Cc1csc2ccccc12)C(=O)N[C@@H](Cc1ccccc1)C(N)=O` (stereo partly drawn) [Compound 346, H-Nip-Phe-Cit-Pro-hle-Bta-Phe-NH2] (ξNip-F[Cit]P[d(hLeu)][Bta]F-NH2) fall in the same range of pIC50: 6.70 to 7.30 for the first, 6.70 to 7.30 for the second.

`CCCC[C@@H]1NC(=O)[C@H](Cc2c[nH]c3ccccc23)NC(=O)[C@@H](CC2CCCCC2)NC(=O)[C@@H]2CCCN2C(=O)[C@@H](NC(=O)[C@H](Cc2ccccc2)N(C)C)CCCNC1=O` [Compound 331, Fbp-[Orn-Pro-cha-Trp-Nle]] (NMe2Phe-[Orn]P[dCha]W[Nle]; lactam 1-C) and `CCCC[C@@H]1NC(=O)[C@H](Cc2c[nH]c3ccccc23)NC(=O)[C@@H](CC2CCCCC2)NC(=O)[C@@H]2CCCN2C(=O)[C@@H](NC(=O)[C@H](Cc2ccccc2)NC(=O)CON=C[C@H](O)[C@@H](O)[C@H](O)[C@H](O)CO)CCCNC1=O` [Compound 333, Fck-[Phe-Orn-Pro-cha-Trp-Nle]] fall in the same range of pIC50: 6.70 to 7.30 for the first, 6.70 to 7.30 for the second.

`O=C(N[C@@H](Cc1ccccc1)C(=O)N[C@H]1CCCNC(=O)[C@H](Cc2ccccc2)NC(=O)[C@H](Cc2c[nH]c3ccccc23)NC(=O)[C@@H](CC2CCCCC2)NC(=O)[C@@H]2C[C@@H](O)CN2C1=O)C1CCCNC1` (stereo partly drawn) [Compound 332, Fci-[Phe-Orn-Hyp-cha-Trp-Phe]] (ξNip-F[Orn][Hyp][dCha]WF; lactam 2-C) and `O=C(CN1CCOCC1)N[C@@H](Cc1ccccc1)C(=O)N[C@H]1CCCNC(=O)[C@H](Cc2ccccc2)NC(=O)[C@H](Cc2c[nH]c3ccccc23)NC(=O)[C@@H](CC2CCCCC2)NC(=O)[C@@H]2C[C@@H](O)CN2C1=O` [Compound 335, Fha-Phe-[Orn-Hyp-cha-Trp-Phe]] (Morpholinoacetyl-F[Orn][Hyp][dCha]WF; lactam 2-C) fall in the same range of pIC50: 6.70 to 7.30 for the first, 6.70 to 7.30 for the second.

`COCCOCCOCC(=O)N[C@@H](Cc1ccccc1)C(=O)N[C@H]1CCCNC(=O)[C@H](Cc2ccccc2)NC(=O)[C@H](Cc2c[nH]c3ccccc23)NC(=O)[C@@H](CC2CCCCC2)NC(=O)[C@@H]2C[C@@H](O)CN2C1=O` [Compound 337, Fhi-Phe-[Orn-Hyp-cha-Trp-Phe]] ({Decanoyl(3,6,9-trioxa)}-F[Orn][Hyp][dCha]WF; lactam 2-C) and `CCCC[C@@H]1NC(=O)[C@H](Cc2c[nH]c3ccccc23)NC(=O)[C@@H](CCC(C)C)NC(=O)[C@@H]2C[C@@H](O)CN2C(=O)[C@@H](NC(=O)[C@H](Cc2ccccc2)NC(=O)CCN)CCCNC1=O` [Compound 342, H-Bal-Phe-[Orn-Hyp-hle-Trp-Nle]] (H-[βAla]F[Orn][Hyp][d(hLeu)]W[Nle]; lactam 3-C) fall in the same range of pIC50: 6.70 to 7.30 for the first, 6.70 to 7.30 for the second.

`N=C(N)N[C@@H](Cc1ccccc1)C(=O)N[C@@H](CCCN)C(=O)N1CCC[C@H]1C(=O)N[C@H](CC1CCCCC1)C(=O)N[C@@H](Cc1csc2ccccc12)C(=O)N[C@@H](Cc1ccccc1)C(N)=O` [Compound 339, Fhu-Phe-Orn-Pro-cha-Bta-Phe-NH2] (X11-[Orn]P[dCha][Bta]F-NH2) and `COC(=O)C(=O)N[C@@H](Cc1ccccc1)C(=O)N[C@@H](CCCN)C(=O)N1CCC[C@H]1C(=O)N[C@H](CC1CCCCC1)C(=O)N[C@@H](Cc1csc2ccccc12)C(=O)N[C@@H](Cc1ccccc1)C(N)=O` [Compound 340, Fid-Phe-Orn-Pro-cha-Bta-Phe-NH2] (Methoxyoxalyl-F[Orn]P[dCha][Bta]F-NH2) fall in the same range of pIC50: 6.70 to 7.30 for the first, 6.70 to 7.30 for the second.

`CCCC[C@@H]1NC(=O)[C@H](Cc2ccc(F)cc2)NC(=O)[C@@H](CCC(C)C)NC(=O)[C@@H]2CCCN2C(=O)[C@@H](NC(=O)[C@H](Cc2ccccc2)NC(=O)CCN)CCCNC1=O` [Compound 343, H-Bal-Phe-[Orn-Pro-hle-Pff-Nle]] (H-[βAla]F[Orn]P[d(hLeu)][Phe(4-F)][Nle]; lactam 3-C) and `CCCC[C@@H]1NC(=O)[C@H](Cc2c[nH]c3ccccc23)NC(=O)[C@@H](CCC(C)C)NC(=O)[C@@H]2C[C@@H](O)CN2C(=O)[C@@H](NC(=O)C[C@H](N)c2ccccc2)CCCNC1=O` [Compound 344, H-Eby-[Orn-Hyp-hle-Trp-Nle]] (dβ3hPhg-[Orn][Hyp][d(hLeu)]W[Nle]; lactam 1-C) fall in the same range of pIC50: 6.70 to 7.30 for the first, 6.70 to 7.30 for the second.
